Square brackets hold non-standard residues; d marks the D form. Ends that are not written are not given here.
Legend:
TLR4 [1] = assay: LPS-induced TNFα in primary human PBMC, ELISA; format: cell-based; settings: 6 h; for inhibitory potential compared to parental A464 (alanine scan): peptide 5 μM, 10 ng/ml LPS; for inhibition of LPS-induced hTNFα production: peptide 1, 5 or 25 μM 1 h before 10 ng/ml LPS
Method: FIGS. 13A and B are bar charts showing the effect of A467 and A464 on LPS-induced TNFα production and on cell viability in primary human cells. Peripheral blood mononuclear cells (PBMCs) were seeded in 96 well plates (1 ×10^6 cells/ml) 24 hours before treatment. A467 (SEQ ID NO. 23) and A464 (SEQ ID NO. 20) were added to the cells at 1, 5 and 25 μM 1 hour before stimulating with 10 ng/ml LPS. The peptides were added into the unstimulated control wells at 25 μM. Supernatants were collected 6 hours after stimulation and assayed for TNFα production by ELISA (A). The cells were assayed for viability by the MTT assay (B). No peptides were added to the control wells (black bars). Data is representative of at least three experiments each performed in triplicate and is expressed as mean±s.d;
(§1) FIGS. 14A and B are bar charts showing the comparison of the inhibitory effect of the L- and D-forms of A464 on LPS-induced TNFα in primary human and murine cells. PBMC (1×10^6 cells/ml, (A)) or immortalised murine macrophages (1.5×10^5 cells/ml, (B)) were seeded in 96 well plates 24 hours before treatment. L-form and D-form A464 peptides (with the 9R delivery peptide on the C-terminus, SEQ ID NO. 20) were added to the cells at a concentration of 1, 5 or 25 μM 1 hour before stimulating with 10 ng/ml LPS. Supernatants were collected 6 hours after stimulation and assayed for either human (A) or murine (B) TNFα production by ELISA. No peptides were added to the control wells (black bars). Data is representative of at least three experiments each performed in triplicate and is expressed as mean±s.d;
(§2) FIGS. 15A and B are bar charts showing the effect of the D-form A464 peptide with the TAT delivery sequence on LPS induced TNFα in primary human and murine cells. PBMC (A) and immortalised murine macrophages (B) were seeded in 96 well plates 24 hours before treatment. D-form of A467 (SEQ ID NO. 37) and A464 (SEQ ID NO. 36) with the TAT delivery sequence were added to the cells at a concentration of 1, 5 or 25 μM 1 hour before stimulating with 10 ng/ml LPS. The peptides were added into the unstimulated control wells at 25 μM. Supernatants were collected 6 hours after stimulation and assayed for either human (A) or murine (B) TNFα production by ELISA. No peptides were added to the control wells (black bars). Data is representative of at least three experiments each performed in triplicate and is expressed as mean±s.d;
(§3) FIGS. 16A and B are bar charts showing the effect of attaching 9R to the N-terminus of A464 on LPS-induced TNFα in primary human and murine cells. Immortalised murine macrophages (A) and PBMC (B) were seeded in 96 well plates 24 hours before treatment. L-form of A467 (SEQ ID NO. 39) and A464 (SEQ ID NO. 38) with the 9R-delivery sequence at the N-terminus were added to the cells at a concentration of 1, 5 or 25 μM 1 hour before stimulating with 10 ng/ml LPS. The peptides were added into the unstimulated control wells at […]. Supernatants were collected 6 hours after stimulation and assayed for either murine (A) or human (B) TNFα production by ELISA. No peptides were added to the control wells (black bars). Data is representative of at least three experiments each performed in triplicate and is expressed as mean±s.d;
FIGS. 17A and B are bar charts showing the effect of the D-form A464 with 9R at the N-terminus on LPS-induced TNFα in primary human and murine cells. Immortalised murine macrophages (A) and PBMC (B) were seeded in 96 well plates 24 hours before treatment. D-form of A467 (SEQ ID NO. 39) and A464 (SEQ ID NO. 38) peptides with the 9R-delivery sequence at N-terminus were added to the cells at a concentration of 1, 5 or 25 μM 1 hour before stimulating with 10 ng/ml LPS. The peptides were added into the unstimulated control wells at 25 μM. Supernatants were collected 6 hours after stimulation and assayed for either murine (A) or human (B) TNFα production by ELISA. No peptides were added to the control wells (black bars). […]

TLR4 [2] = biological target: T1, TLR4 (Mus musculus, UniProt Q9QUK6); assay: LPS-induced TNFα in immortalised murine macrophages, ELISA; format: cell-based; set-up: endogenous in cells; immortalised murine bone-marrow-derived macrophages; settings: 6 h; for inhibition of LPS-induced mTNFα production: peptide 1, 5 or 25 μM 1 h before 10 ng/ml LPS
T1 sequence (Q9QUK6 26-835): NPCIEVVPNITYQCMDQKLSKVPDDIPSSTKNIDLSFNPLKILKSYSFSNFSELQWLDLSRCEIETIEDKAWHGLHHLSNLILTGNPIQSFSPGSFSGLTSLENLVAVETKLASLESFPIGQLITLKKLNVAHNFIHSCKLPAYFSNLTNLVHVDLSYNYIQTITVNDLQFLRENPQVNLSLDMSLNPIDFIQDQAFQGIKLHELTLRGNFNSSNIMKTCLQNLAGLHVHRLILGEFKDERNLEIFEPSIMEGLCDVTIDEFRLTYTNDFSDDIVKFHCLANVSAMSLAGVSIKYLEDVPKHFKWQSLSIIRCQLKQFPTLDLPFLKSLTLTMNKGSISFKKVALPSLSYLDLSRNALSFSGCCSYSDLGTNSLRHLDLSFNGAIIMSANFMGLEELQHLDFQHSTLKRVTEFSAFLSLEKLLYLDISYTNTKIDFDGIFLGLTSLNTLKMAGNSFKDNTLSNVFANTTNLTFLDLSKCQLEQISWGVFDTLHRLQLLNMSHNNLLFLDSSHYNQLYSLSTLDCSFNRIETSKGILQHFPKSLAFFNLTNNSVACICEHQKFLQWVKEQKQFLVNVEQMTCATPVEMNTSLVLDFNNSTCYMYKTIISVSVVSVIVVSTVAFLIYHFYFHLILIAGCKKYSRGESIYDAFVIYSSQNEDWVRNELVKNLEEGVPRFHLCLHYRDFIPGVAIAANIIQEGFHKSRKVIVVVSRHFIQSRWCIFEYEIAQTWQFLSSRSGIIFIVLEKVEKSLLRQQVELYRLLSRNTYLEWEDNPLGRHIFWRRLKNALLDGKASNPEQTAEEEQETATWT
T1 sequence (Q9JHF9 19-160 partner): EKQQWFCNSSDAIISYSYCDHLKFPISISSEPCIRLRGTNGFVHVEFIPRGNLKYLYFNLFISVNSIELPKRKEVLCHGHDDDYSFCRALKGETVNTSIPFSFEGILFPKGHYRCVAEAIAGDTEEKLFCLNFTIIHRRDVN
Method: as §1, §2, §3
FIGS. 17A and B are bar charts showing the effect of the D-form A464 with 9R at the N-terminus on LPS-induced TNFα in primary human and murine cells. Immortalised murine macrophages (A) and PBMC (B) were seeded in 96 well plates 24 hours before treatment. D-form of A467 (SEQ ID NO. 39) and A464 (SEQ ID NO. 38) peptides with the 9R-delivery sequence at N-terminus were added to the cells at a concentration of 1, 5 or 25 μM 1 hour before stimulating with 10 ng/ml LPS. The peptides were added into the unstimulated control wells at 25 μM. Supernatants were collected 6 hours after stimulation and assayed for either murine (A) or human (B) TNFα production by ELISA. No peptides were added to the control wells (black bars). Data is representative of at least three experiments each performed in triplicate and is expressed as mean±s.d;
FIGS. 18A and B are bar charts showing the effect of shortened A464 peptides with deletions of N- and C-terminal amino acids on LPS-induced TNFα in murine macrophages. Immortalised murine macrophages were seeded in 96 well plates (1.5×10^5 cells/ml) 24 hours before treatment. A464 peptides with a deletion of one (N-1) (SEQ ID NO. 40) or two (N-2) (SEQ ID NO. 41) amino acids from the N-terminus (A), or three (C-3) (SEQ ID NO. 42) or six (C-6) (SEQ ID NO. 43) amino acids from the C-terminus (B), were added to the cells at a concentration of 1, 5 or 25 μM 1 hour before stimulating with 10 ng/ml LPS. Peptides were added to the control wells at 25 μM. […]

cell viability = assay: MTT cell viability assay, more detailed investigation of screening hits; format: cell-based; settings: cell type not stated
Method: Cell viability was measured by assessing mitochondrial function using an MTT (3-(4,5-Dimethylthiazol-2-yl)-2,5-diphenyltetrazolium bromide) assay. Cells were seeded into 96 well plates and treated with peptides and agonists as described above in relation to the Figs. Wells containing medium only served as a blank control. To terminate treatment of cells, medium was removed and the cells were washed once with PBS. 200 μl per well of 1 mg/ml MTT in PBS was added directly to the cells and the plates were incubated at 37° C. for 14-16 hrs in the dark. MTT was then removed and 200 μl per well of dimethyl sulphoxide (DMSO) was added and cells incubated for 20 min at 37° C. in the dark, prior to absorbance being read at 595 nm on a spectrophotometer.

TLR4 [3] = biological target: T1, TLR4; assay: LPS-induced TNFα in immortalised murine macrophages, ELISA; format: cell-based; set-up: endogenous in cells; immortalised murine bone-marrow-derived macrophages; settings: peptide 1, 3, 6.25 and 12.5 μM, 20 ng/ml LPS, 6 h
TLR4 [4] = biological target: T1, TLR4; assay: LPS-induced TNFα in RAW264.7 cells, ELISA; format: cell-based, murine; set-up: endogenous in cells; host or cells: RAW264.7; immortalised murine bone-marrow-derived macrophages; settings: peptide 5 or 25 μM 1 h before 10 ng/ml LPS, 6 h, A464 5 μM as positive control
Method: FIGS. 5A and B are bar charts showing the dose-dependent inhibitory effect of A464R on LPS-induced TNFα in murine RAW264.7 cells. A464 (SEQ ID NO. 20) was added to the cells at a concentration of 5, 20 or 50 μM 1 hour before stimulating with 100 ng/ml LPS. Supernatant was collected 24 hours after stimulation and assayed for TNFα by ELISA (A) and cells were assayed for viability by the MTT assay (B.). No peptides were added to the control wells (black bars). Data is representative of at least three experiments each performed in triplicate and is expressed as mean±s.d;
FIGS. 6A and B are bar charts showing the effect of peptides derived from A46 on LPS-induced TNFα in murine RAW264.7 cells. A46 peptides were added to the cells at a concentration of 1 or 5 μM 1 hour before stimulating with 10 ng/ml LPS. Supernatants were collected 6 hours after stimulation and assayed for TNFα by ELISA. No peptides were added into the control wells (black bars). (A) peptides A461-A467 (SEQ ID NO. 17 to 23). (B) peptides A468-A4614 (SEQ ID NO. 24 to 30) (excluding A4610 SEQ ID NO. 26 and A4612 SEQ ID NO. 28). Data is representative of at least two experiments each performed in triplicate and is expressed as mean±s.d;
FIGS. 22 A and B are bar charts showing the effect of short A467 and A464 peptides, with 9R on either N- or C-terminus, on LPS- induced TNFα production in murine RAW264.7 cells. Cells were seeded in 96 well plates (1.5×10^5 cells/ml) 24 hours before treatment. Short A467 and short A464 peptides with the 9R delivery sequence on either the C-terminus (sA464C9R) (SEQ ID NO. 56) (A) or the N-terminus (sA464N9R) (SEQ ID NO. 57) (B) were added to the cells at a concentration of 5 or 25 μM 1 hour before stimulating with 10 ng/ml LPS. Normal full length A467 (SEQ ID NO. 23) and A464 (SEQ ID NO. 20) peptides were added at a concentration of 5 μM as positive controls. Supernatants were collected 6 hours after stimulation with the agonist and assayed for TNFα, by ELISA. No peptides were added to the control wells (black bars). Data is representative of at least three experiments each performed in triplicate and is expressed as mean±s.d;
Cytokine and chemokine production from cells or mouse serum was measured by ELISA using Duoset kits from R&D systems, according to the manufacturer's instructions.

## KYSFKAILAEY-9R (KYSFKAILAEYRRRRRRRRR) [Peptide L6A]
TLR4 [1]
  inhibitory potential compared to parental A464 (alanine scan): reduced inhibitory potential
TLR4 [2]; peptide 5 μM, 10 ng/ml LPS
  inhibition compared to A464 (alanine scan): reduced inhibition

## KYSFKLALAEY-9R (KYSFKLALAEYRRRRRRRRR) [Peptide I7A]
TLR4 [1]
  inhibitory potential compared to parental A464 (alanine scan): reduced inhibitory potential

## KYSAKLILAEY-9R (KYSAKLILAEYRRRRRRRRR) [Peptide F4A]
TLR4 [1]
  inhibitory potential compared to parental A464 (alanine scan): reduced inhibitory potential

## DSGLFDFVNFVRRRRRRRRR [Peptide A469]
Cell viability
  cell viability (MTT assay): reduced cell viability

## 9R-SFKLFL (RRRRRRRRRSFKLFL) [Peptide 9R-SFKLFL]
TLR4 [3]
  inhibition of TLR4-induced murine TNFα by shorter versions of sA464N9R: did not

## D-A464-TAT ([dK][dY][dS][dF][dK][dL][dI][dL][dA][dE][dY][dY]G[dR][dK][dK][dR][dR][dQ][dR][dR][dR])
TLR4 [1]
  inhibition of LPS-induced hTNFα production: failed to inhibit LPS-induced hTNFα production at 1-25 μM
TLR4 [2]
  inhibition of LPS-induced mTNFα production: still inhibited, but only at 5-25 μM

## KYSFKLILAEYRRRRRRRRR [D-A464]
TLR4 [1]
  inhibition of LPS-induced hTNFα production: only blocked TNFα secretion at 25 μM
TLR4 [2]
  inhibition of LPS-induced mTNFα production: complete inhibition at 1

## KYSFALILAEY-9R (KYSFALILAEYRRRRRRRRR) [Peptide K5A]
TLR4 [1]
  inhibitory potential compared to parental A464 (alanine scan): reduced inhibitory potential

## KYSFK-9R [Peptide A464C-6]
TLR4 [2]
  inhibition of LPS-induced mTNFα production: lost its ability to inhibit LPS-induced TNFα production

## DFVNFVKDMICRRRRRRRRR [Peptide A4610]
Cell viability
  cell viability (MTT assay): reduced cell viability

## TYLYNKYSFKLRRRRRRRRR [Peptide A463]
Cell viability
  cell viability (MTT assay): reduced cell viability

## sA464N9R (RRRRRRRRRSFKLIL)
TLR4 [4]
  inhibition of LPS-induced TNFα by short peptides: inhibited LPS-induced TNFα production as potently as A464 (SEQ ID No. 20) at 5 μM

## sA464C9R (SFKLILRRRRRRRRR)
TLR4 [4]
  inhibition of LPS-induced TNFα by short peptides: only when the delivery sequence was at the N-terminus

From patent US8722052B2, “Vaccinia virus protein A46 peptide and use thereof” (priority 2008, dated 2014)
